Read-outs that look alike come from different tables or passages of the source.
Settings: for phase-transformed into gamma-glycine: after 24 hours

SMILES: NCC(=O)O [alpha-glycine, glycine]
- phase-transformed into gamma-glycine (100 g glass beads 1.7 to 2.0 mm, 300 g group 1, 500 rpm): 100%
- gamma-glycine (stable phase crystal) obtained (glass beads 1.7 to 2.0 mm, about 100 to 200 g, 300 rpm, stirred/ground 24-48 hours, groups 1 to 6): 100%
- time after which supersaturation of stable phase crystals (gamma-glycine) increased (magnetic bar in propeller stirring device, 300 rpm): about 1,500 minutes
- stable phase crystals obtained (magnetic bar stirred/ground at 300 rpm for about 65 hours or more (6,800 minutes)): 100%
- stable phase crystal (gamma-glycine) precipitation rate (simple propeller stirrer, no physical grinding, 300 g, 300 rpm, about 15 days, groups 1 to 6 of Table 1): 0%
- phase transformation from alpha-glycine to gamma-glycine (zirconia beads 5.0 to 7.0 mm, 100 rpm, 24 hours plus further 48 hours stirring): 100%
- phase-transformed into gamma-glycine (zirconia beads 5.0 to 7.0 mm, 300 g group 1, 100 rpm): 0%
